Legend:
[1] = tested on: Pan T cells isolated from C57BL6 splenocytes; experiment: T cell function assay (IFNγ and TNFα in supernatants, MSD V-plex); format: cell-based, mouse; details: 30 μM compound, 3 days, supernatant
Method: (§1) Pan T cells were isolated from C57BL6 splenocytes using a MACS Pan T cell isolation kit II (Miltenyi Biotec, Auburn, Calif.) according to the manufacturer's instructions. Isolated T cells (200,000 cells/well in a 96 well flat-bottom plate) were cultured in RPMI 1640 supplemented with 10% FBS, […] 2-mercatoethanol, 100 U/mL penicillin, and 100 μg/mL streptomycin, and incubated with the indicated concentration of compound or DMSO in duplicates. After 1 hour, mouse T cell activator CD3/CD28 Dynabeads (ThermoFisher Scientific, Waltham, Mass.) were added at a 1:5 beads to cells ratio to stimulate the T cells for 2 or 3 days as outlined below. T cells with or without compound were incubated in the absence of T cell activator beads (media only) as control.
After 3 days of stimulation, supernatants were collected and IFNγ and TNFα in supernatants were assessed using an MSD V-plex assay (Meso Scale Discovery, Rockville, Md.).

[2] = tested on: MC-38 murine colon adenocarcinoma; experiment: In vivo efficacy in MC38 tumor model; details: for mice that achieved complete cures / tolerability / Tumor Growth Inhibition (Max) compared to vehicle [%]: 300 mg/kg/dose oral BID for 21 days; for Tumor Growth Inhibition (Max) compared to vehicle [%]: C57Bl/6 mice, TGIMax over the entirety of the study; for tumor response observed: within 7-10 days of treatment
Method: All experiments were conducted in compliance with AbbVie's Institutional Animal Care and Use Committee and the National Institutes of Health Guide for Care and Use of Laboratory Animals guidelines in a facility accredited by the Association for the Assessment and Accreditation of Laboratory Animal Care. C57Bl/6 female mice were obtained from Charles River (Wilmington, Mass.). The mice were group-housed 10 per cage. Food and water were available ad libitum. Animals were acclimated to the animal facilities for a period of at least one week prior to commencement of experiments. Animals were tested in the light phase of a 12-hour light:12-hour dark schedule (lights on 0600 hours).
Cells were grown to passage 3 in vitro. A total of 1×10^5 viable MC-38 cells were inoculated subcutaneously into the right flank of female C57Bl/6 mice (7-12 weeks old) on Day 0. The injection volume was 0.1 mL and was composed of a 1:1 mixture of S-MEM and Matrigel® (Corning, N.Y., USA). […] The mean tumor volume (TV) at size match was approximately 116±8 mm^3. Following size match, treatments were initiated on the same day. […] Compound 124 was formulated in 5% DMSO, 5% Tween 80 (Polysorbate 80), 20% PEG-400 and 70% D5W (5% dextrose in water) and was dosed at 10 mL/kg. […] Tumor volume was calculated three times weekly. Measurements of the length (L) and width (W) of the tumor were taken via electronic caliper and the volume was calculated according to the following equation: V=L×W^2/2 using Study Director Version 3.1.399.22 (Studylog Systems, Inc, CA, USA). Mice were euthanized when tumor volume was […] or skin ulcerations occurred. […] Reported TGIMax is the largest TGI value for any timepoint that tumors volumes were collected for that treatment group.

[3] = tested on: Pan T cells isolated from C57BL6 splenocytes; experiment: T cell activation assay (flow cytometry, CD25/CD69 on CD8 T cells); format: cell-based, mouse; details: for % CD25 within CD8+ / % CD69 within CD8+ / CD25 MFI / CD69 MFI: 30 μM compound, 2 days; for T cell activation and T cell function: with TCR stimulation
Method: as §1
After 2 days of stimulation, activation status of T cells was assessed by flow cytometry. T cells were first subjected to Zombie Violet™ Fixable Viability dye (BioLegend, San Diego, Calif.) for dead cell exclusion, washed and then stained with BUV805 labeled anti-CD8, APC-R700 labeled anti-CD25 (both from BD Biosciences, San Jose, Calif.) and PE labeled anti-CD69 (BioLegend, San Diego, Calif.) antibodies. After staining, cells were fixed with 2% paraformaldehyde and acquired on a BD LSRFortessa™ X-20 flow cytometer (BD Biosciences, San Jose, Calif.) using BD FACSDiva™ software. Data was analyzed using FlowJo V10 (Flow Jo LLC, Ashland, Oreg.). Dead cells were excluded and frequencies of activated CD8 T cells was reported as the frequency of CD25+ or CD69+ cells within the CD8+ population. The expression level of CD25 and CD69 indicates the activation status of cells on a per cell basis and was evaluated by the mean fluorescence intensities (MFI) of CD25 and CD69.

[4] = anti-CD3/anti-CD28 Dynabeads (1:5 beads:cells)

| Compound | IFNγ [1, 4] | TNFα [1, 4] | IFNγ ([1]; no TCR stimulation) | TNFα ([1]; no TCR stimulation) | mice that achieved complete cures [2] | tolerability [2] | Tumor Growth Inhibition (Max) compared to vehicle [%] [2] | tumor response observed [2] | % CD25 within CD8+ [3, 4] | % CD69 within CD8+ [3, 4] | CD25 MFI [3, 4] | CD69 MFI [3, 4] | % CD25 within CD8+ ([3]; no TCR stimulation) | % CD69 within CD8+ ([3]; no TCR stimulation) | CD25 MFI ([3]; no TCR stimulation) | CD69 MFI ([3]; no TCR stimulation) | T cell activation and T cell function [3] |
| --- | --- | --- | --- | --- | --- | --- | --- | --- | --- | --- | --- | --- | --- | --- | --- | --- | --- |
| COc1ccc2cc(O)c(N3CC(=O)NS3(=O)=O)c(F)c2c1 [Compound 124, 5-(1-fluoro-3-hydroxy-7-methoxynaphthalen-2-yl)-1λ^6,2,5-thiadiazolidine-1,1,3-trione] | 435 ng/mL | 195 ng/mL | 1.2 ng/mL | 1.4 ng/mL | 50% | well tolerated, without obvious adverse health events | 75% | apparent tumor stasis and shrinkage | 32.55% | 61.90% | 846.5 | 1421.5 | 0.39% | 0.23% | 57.05 | 28.1 | increased both T cell activation and T cell function |
| CC(C)(O)CCOc1ccc2cc(O)c(N3CC(=O)NS3(=O)=O)c(F)c2c1 [Compound 182, 5-[1-fluoro-3-hydroxy-7-(3-hydroxy-3-methylbutoxy)naphthalen-2-yl]-1λ^6,2,5-thiadiazolidine-1,1,3-trione] | 189 ng/mL | 135 ng/mL |  |  | 50% | well tolerated, without obvious adverse health events | 94% | apparent tumor stasis and shrinkage | 29.20% | 61.90% | 741 | 1601.5 | 1.17% | 0.45% | 72.4 | 18.3 | increased both T cell activation and T cell function |
